Measured values from patent US20180235949A1 (priority 2015, published 2018).
Read-outs that look alike come from different tables or passages of the source.

Tests used:
α2B (h) [1] = target: T1, α2B (h) (Homo sapiens, UniProt P18089); test: α2B (h) (antagonist radioligand) binding; settings: for nH: α2B (h) (antagonist radioligand)
T1 sequence (P18089 1-450): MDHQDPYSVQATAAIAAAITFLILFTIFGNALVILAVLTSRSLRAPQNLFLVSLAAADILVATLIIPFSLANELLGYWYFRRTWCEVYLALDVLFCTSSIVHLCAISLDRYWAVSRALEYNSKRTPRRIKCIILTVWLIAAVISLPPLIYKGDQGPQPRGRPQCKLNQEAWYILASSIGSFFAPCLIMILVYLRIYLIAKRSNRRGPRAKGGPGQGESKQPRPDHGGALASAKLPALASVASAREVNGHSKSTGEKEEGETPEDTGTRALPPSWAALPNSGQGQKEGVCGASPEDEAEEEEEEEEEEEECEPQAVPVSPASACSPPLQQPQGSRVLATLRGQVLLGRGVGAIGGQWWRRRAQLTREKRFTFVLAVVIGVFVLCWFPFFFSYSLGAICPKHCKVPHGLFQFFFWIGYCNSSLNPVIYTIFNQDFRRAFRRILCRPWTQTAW
Experimental: (§1) Representative compounds were tested to determine IC50 or EC50 in receptor functional assays. One or more of the procedures disclosed in the following references were used: Devedjian, J. C. et al., Eur. J. Pharmacol., 1994, 252, 43-49; Wang, J. B. et al., FEBS Lett., 1994, 338, 217-222; Simonin, F. et al., Mol. Pharmacol., 1994, 46, 1015-1021; Meng, F. et al., Proc. Natl. Acad. Sci. U.S.A., 1993, 90, 9954-9958; Avidor-Reiss, T. et al., FEBS Lett., 1995, 361, 70-74; Eason, M. G. et al., J. Biol. Chem., 1992, 267, 15795-15801; Law, P. Y. et al., Mol. Pharmacol., 1993, 43, 684-693. In each experiment and if applicable, the respective reference compound was tested concurrently with the test compounds. Compound binding was calculated as a % inhibition of the binding of a radioactively labeled ligand specific for each target. Cellular agonist effect was calculated as a % of control response to a known reference agonist for each target and cellular antagonist effect was calculated as a % inhibition of control reference agonist response for each target. Only the calculable IC50 and EC50 are reported below.

κ (KOP) = κ (KOP) (Rattus norvegicus, UniProt P34975); type: binding
μ (MOP) (h) [2] = target: T2, μ (MOP) (h) (Homo sapiens, UniProt P35372); type: cell-based
α2B (h) [3] = target: T1, α2B (h); test: α2B (h) (antagonist effect) cellular functional assay; type: cell-based
Experimental: as §1

CYP2C8 = CYP2C8 (Homo sapiens, UniProt P10632); test: CYP2C8 inhibition, human liver microsomes (paclitaxel); settings: 0.1-25 μM
CYP3A4 [4] = settings: human hepatocytes, 72 hr, any concentration tested
[5] = Bioavailability and stability evaluation; settings: summary
[6] = system: L-DOPA induced dyskinesias; test: L-DOPA induced dyskinesias, Rodent in vivo model
CYP3A4 [7] = target: T3, CYP3A4 (Homo sapiens, UniProt P08684); settings: 0.1-25 μM, human liver microsomes, substrate testosterone
hERG potassium channel = hERG potassium channel (Homo sapiens, UniProt Q12809); test: hERG channel inhibition, IonWorks automated patch clamp, CHO-hERG cells; settings: up to 25 micromolar
CYP2D6 = target: T4, CYP2D6 (Homo sapiens, UniProt P10635); test: Time dependent inhibition of CYP2D6 (dextromethorphan; IC50 shift); type: in vitro ADME
T4 construct: from tissue
Experimental: Six test compound concentrations (0.1, 0.25, 1, 2.5, 10, 25 μM; final DMSO concentration 0.25%, final microsome concentration 0.5 mg/mL) were either pre-incubated for 30 min in the absence and presence of NADPH or undergo a 0 min pre-incubation. The probe substrate dextromethorphan (5 μM) and NADPH (1 mM) were then added (final DMSO concentration 0.3%) and the samples incubated for 5 min at 37° C. The selective time dependent CYP2D6 inhibitor, paroxetine, was screened alongside the test compounds as a positive control. The reactions were terminated by the addition of an aliquot of the incubation into methanol. The samples were centrifuged at 2500 rpm for 30 min at 4° C., and aliquots of the supernatant are diluted with formic acid in deionised water (final concentration 0.1%) containing internal standard prior to analysis of dextrorphan by LC-MS/MS.

[8] = system: L-dopa-induced dyskinesia; test: L-dopa-induced dyskinesia, comparison with amantadine; type: in vivo; settings: model not specified
MDR1-MDCK cells = test: MDR1-MDCK permeability and P-gp substrate identification (bi-directional); type: in vitro ADME, canine; settings: 10 μM, MDR1-MDCK, pH 7.4
Experimental: (§2) Cells were then incubated with HBSS at the desired pH in both apical and basolateral compartments for 40 min to stabilize physiological parameters.
(§3) The fluorescent integrity marker lucifer yellow was also included in the dosing solution. […] Analytical standards were prepared from test compound DMSO dilutions and transferred to buffer, maintaining a 1% v/v DMSO concentration.
(§4) For assessment of A-B permeability, HBSS was removed from the apical compartment and replaced with test compound dosing solution. […] For assessment of B-A permeability, HBSS was removed from the companion plate and replaced with test compound dosing solution. […] Test compound permeability was assessed in duplicate. Compounds of known permeability characteristics were run as controls on each assay plate. […] Cyprotex generic analytical conditions were used. The starting concentration (C0) was determined from the dosing solution and the experimental recovery calculated from C0 and both apical and basolateral compartment concentrations.
(§5) The integrity of the monolayer throughout the experiment was checked by monitoring lucifer yellow permeation using fluorimetric analysis.

P-glycoprotein (MDR1) = test: as above; type: in vitro ADME, canine; settings: dog, MDCK-MDR1, pH 7.4; minus inhibitor (no cyclosporin A)
Experimental: as §2, §3, §4, §5

Caco-2 cells = test: Caco-2 permeability (bi-directional); settings: 10 μM, pH gradient (pH 6.8/7.4)
[9] = Caco-2 permeability (bi-directional); settings: human, Caco-2, pH 6.8
[10] = Toxicity in animal models; type: in vivo; settings: many animal models, even at high concentrations
[11] = Binding to plasma proteins; type: in vitro ADME; settings: very small species differences
CYP2B6 [12] = settings: human hepatocytes, 72 hr, at 100 μM
CYP2C9 = CYP2C9 (Homo sapiens, UniProt P11712); test: CYP2C9 inhibition, human liver microsomes (tolbutamide); settings: 0.1-25 μM
CYP3A4 [13] = target: T3, CYP3A4; settings: 0.1-25 μM, human liver microsomes, substrate midazolam
CYP2B6 [14] = target: CYP2B6 (Homo sapiens, UniProt P20813); settings: 0.1-25 μM, human liver microsomes, bupropion
CYP1A2 [15] = target: CYP1A2 (Homo sapiens, UniProt P05177); settings: 0.1-25 μM, human liver microsomes, phenacetin
[16] = Brain tissue binding, equilibrium dialysis, mouse; settings: 5 μM
[17] = system: L-DOPA induced dyskinesias; test: L-DOPA induced dyskinesias, Primate in vivo model
CYP2C19 = CYP2C19 (Homo sapiens, UniProt P33261); test: CYP2C19 inhibition, human liver microsomes (mephenytoin); settings: up to 25 micromolar
CYP1A2 [18] = settings: human hepatocytes, 72 hr, any concentration tested
μ (MOP) (h) [19] = target: T2, μ (MOP) (h); test: μ (MOP) (h) (agonist effect) cellular functional assay; type: cell-based
Experimental: as §1

μ (MOP) (h) [20] = target: T2, μ (MOP) (h); type: binding
δ2 (DOP) (h) = δ2 (DOP) (h) (Homo sapiens, UniProt P41143); type: binding
δ2 (DOP) (h), sequence (P41143 whole entry): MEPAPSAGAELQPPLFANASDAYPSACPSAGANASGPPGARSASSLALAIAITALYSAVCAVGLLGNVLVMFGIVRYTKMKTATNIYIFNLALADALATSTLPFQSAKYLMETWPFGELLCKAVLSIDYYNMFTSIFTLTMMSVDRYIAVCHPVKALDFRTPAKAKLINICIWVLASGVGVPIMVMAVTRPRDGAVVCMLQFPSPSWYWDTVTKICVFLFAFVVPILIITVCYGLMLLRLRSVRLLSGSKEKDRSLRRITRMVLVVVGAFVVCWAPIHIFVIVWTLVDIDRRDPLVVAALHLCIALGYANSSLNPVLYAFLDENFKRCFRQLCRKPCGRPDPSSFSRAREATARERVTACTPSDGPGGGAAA

T2 sequence (P35372 whole entry): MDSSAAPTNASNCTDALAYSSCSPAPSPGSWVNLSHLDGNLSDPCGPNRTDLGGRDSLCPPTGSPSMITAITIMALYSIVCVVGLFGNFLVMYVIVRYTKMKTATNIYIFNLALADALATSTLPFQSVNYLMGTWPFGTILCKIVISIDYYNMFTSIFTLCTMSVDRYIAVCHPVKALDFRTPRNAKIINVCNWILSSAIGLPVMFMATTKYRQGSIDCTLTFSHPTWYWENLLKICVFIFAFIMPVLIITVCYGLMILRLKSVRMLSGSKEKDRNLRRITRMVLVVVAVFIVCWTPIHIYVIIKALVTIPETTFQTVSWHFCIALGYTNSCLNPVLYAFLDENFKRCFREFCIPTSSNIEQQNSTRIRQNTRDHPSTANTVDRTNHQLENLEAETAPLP
T4 sequence (P10635 whole entry): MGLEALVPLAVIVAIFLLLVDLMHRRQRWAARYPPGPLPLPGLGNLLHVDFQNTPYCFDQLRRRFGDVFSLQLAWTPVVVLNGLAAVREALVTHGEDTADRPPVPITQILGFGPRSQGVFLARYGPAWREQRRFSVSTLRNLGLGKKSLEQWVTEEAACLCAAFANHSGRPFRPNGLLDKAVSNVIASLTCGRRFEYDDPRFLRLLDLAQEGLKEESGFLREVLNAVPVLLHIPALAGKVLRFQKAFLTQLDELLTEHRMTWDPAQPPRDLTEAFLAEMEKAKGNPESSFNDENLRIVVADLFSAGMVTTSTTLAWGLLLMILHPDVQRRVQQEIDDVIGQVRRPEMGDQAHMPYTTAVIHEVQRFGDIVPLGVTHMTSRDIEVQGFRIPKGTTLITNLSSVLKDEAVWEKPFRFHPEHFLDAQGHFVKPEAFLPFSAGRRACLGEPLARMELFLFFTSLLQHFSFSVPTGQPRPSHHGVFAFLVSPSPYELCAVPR
κ (KOP), sequence (P34975 whole entry): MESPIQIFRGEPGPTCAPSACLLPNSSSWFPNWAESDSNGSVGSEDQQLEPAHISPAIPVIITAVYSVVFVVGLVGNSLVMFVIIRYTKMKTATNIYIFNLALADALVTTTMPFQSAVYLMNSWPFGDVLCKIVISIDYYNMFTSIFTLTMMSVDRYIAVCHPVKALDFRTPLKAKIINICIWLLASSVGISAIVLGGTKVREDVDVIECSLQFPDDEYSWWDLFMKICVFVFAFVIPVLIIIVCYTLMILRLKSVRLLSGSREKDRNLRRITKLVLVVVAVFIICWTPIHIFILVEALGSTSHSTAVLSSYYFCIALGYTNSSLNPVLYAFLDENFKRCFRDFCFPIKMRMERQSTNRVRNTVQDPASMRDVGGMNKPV
T3 sequence (P08684 whole entry): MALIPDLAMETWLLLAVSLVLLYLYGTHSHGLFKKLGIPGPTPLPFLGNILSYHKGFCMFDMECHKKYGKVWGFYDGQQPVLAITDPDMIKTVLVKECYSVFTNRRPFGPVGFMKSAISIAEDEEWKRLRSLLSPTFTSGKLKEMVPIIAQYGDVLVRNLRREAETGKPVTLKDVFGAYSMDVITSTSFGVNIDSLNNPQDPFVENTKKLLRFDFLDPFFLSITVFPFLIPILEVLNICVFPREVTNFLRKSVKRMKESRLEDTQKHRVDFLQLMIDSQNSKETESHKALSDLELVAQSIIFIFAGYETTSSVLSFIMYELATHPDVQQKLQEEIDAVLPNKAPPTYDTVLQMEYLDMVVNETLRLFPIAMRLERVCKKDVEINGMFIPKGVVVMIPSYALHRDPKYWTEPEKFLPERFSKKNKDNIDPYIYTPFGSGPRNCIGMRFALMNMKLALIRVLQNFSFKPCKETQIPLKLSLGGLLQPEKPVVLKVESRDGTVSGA
CYP2C9, sequence (P11712 whole entry): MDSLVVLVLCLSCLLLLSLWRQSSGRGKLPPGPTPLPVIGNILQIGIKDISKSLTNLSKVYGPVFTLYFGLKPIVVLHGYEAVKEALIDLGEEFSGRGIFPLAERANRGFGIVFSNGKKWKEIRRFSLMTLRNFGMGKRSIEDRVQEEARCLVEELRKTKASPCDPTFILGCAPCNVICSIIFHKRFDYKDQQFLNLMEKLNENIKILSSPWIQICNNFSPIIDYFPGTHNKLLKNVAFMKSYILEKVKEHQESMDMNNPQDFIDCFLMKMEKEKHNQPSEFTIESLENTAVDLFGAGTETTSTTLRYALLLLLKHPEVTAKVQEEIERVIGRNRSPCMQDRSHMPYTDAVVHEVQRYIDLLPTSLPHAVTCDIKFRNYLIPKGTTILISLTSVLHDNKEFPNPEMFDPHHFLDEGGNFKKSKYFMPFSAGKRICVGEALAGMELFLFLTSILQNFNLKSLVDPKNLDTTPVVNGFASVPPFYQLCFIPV
CYP2B6 (Homo sapiens, UniProt P20813), sequence (P20813 whole entry): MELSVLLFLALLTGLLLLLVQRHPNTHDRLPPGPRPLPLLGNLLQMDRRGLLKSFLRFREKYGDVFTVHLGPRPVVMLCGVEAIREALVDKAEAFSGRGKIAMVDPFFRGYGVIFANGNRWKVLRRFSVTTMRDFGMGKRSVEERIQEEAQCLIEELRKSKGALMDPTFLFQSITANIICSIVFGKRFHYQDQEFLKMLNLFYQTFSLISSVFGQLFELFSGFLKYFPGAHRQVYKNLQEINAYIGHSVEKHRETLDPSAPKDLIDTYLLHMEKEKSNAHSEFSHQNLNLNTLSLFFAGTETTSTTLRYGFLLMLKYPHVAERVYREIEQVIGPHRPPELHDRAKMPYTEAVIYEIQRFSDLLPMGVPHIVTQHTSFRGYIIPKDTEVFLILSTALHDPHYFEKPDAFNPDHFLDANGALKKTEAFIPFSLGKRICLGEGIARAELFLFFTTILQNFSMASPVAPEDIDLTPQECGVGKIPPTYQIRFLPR
CYP2C8, sequence (P10632 whole entry): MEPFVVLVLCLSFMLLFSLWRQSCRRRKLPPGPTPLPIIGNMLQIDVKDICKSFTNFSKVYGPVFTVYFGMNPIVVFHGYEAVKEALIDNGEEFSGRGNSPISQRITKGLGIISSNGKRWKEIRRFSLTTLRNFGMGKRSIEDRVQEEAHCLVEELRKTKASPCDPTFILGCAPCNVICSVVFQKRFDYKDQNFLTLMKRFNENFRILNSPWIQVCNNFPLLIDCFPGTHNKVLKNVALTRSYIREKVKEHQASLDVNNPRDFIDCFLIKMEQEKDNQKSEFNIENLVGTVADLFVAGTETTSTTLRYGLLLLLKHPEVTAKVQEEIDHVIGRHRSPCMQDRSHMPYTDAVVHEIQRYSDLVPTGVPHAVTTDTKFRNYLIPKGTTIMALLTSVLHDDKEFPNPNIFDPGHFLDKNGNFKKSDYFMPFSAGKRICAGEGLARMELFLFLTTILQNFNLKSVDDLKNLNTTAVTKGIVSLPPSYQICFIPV
CYP2C19, sequence (P33261 whole entry): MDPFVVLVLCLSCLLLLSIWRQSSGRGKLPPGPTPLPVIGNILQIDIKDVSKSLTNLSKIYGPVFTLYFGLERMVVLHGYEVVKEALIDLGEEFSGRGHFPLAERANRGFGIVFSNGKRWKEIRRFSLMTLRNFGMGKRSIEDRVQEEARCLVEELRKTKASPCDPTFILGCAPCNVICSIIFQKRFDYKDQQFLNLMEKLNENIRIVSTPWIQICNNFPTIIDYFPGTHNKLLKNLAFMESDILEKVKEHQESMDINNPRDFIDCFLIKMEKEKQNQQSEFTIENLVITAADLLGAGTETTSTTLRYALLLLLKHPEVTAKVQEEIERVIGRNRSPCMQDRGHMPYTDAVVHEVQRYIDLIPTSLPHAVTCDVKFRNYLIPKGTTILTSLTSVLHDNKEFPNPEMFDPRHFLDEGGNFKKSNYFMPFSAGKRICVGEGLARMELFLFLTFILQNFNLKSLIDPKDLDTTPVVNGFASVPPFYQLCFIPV
CYP1A2 (Homo sapiens, UniProt P05177), sequence (P05177 whole entry): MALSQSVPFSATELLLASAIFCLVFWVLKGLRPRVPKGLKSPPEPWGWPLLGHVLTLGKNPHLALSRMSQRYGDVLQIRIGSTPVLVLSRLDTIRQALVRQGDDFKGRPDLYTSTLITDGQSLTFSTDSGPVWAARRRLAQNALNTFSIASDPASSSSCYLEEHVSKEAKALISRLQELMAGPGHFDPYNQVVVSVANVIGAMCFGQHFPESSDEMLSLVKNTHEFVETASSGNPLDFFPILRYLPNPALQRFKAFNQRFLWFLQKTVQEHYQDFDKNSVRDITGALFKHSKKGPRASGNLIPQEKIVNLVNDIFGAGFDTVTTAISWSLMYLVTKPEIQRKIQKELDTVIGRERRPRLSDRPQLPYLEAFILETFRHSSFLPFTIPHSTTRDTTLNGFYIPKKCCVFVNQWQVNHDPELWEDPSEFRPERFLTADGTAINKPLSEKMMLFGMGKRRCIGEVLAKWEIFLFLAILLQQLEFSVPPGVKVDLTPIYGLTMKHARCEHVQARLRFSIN

O=C(CCCCCCCBr)NC1CCN(CCc2ccccc2)CC1 [8-bromo-N-(1-phenethylpiperidin-4-yl)octanamide]
IC50 (α2B (h) [1]): 5.7 µM | Ki (α2B (h) [1]): 3.8 µM | nH (α2B (h) [1]): 0.8 | nH (κ (KOP)): 0.5 | nH (μ (MOP) (h) [2]): 0.4 | IC50 (α2B (h) [3]): 360 µM | Kb (α2B (h) [3]): 46 µM

CCC(=O)NC1CCN(CCc2ccccc2)CC1 [HCV-3, N-(1-phenethylpiperidin-4-yl)propionamide]
CYP2C8 inhibition (CYP2C8): No significant inhibition | CYP3A4 mRNA expression (CYP3A4 [4]): didn't cause a statistically significant change | bioavailability [5]: highly bioavailable | inhibition of L-DOPA induced dyskinesias [6]: significant inhibition | CYP3A4 inhibition (CYP3A4 [7]): No significant inhibition | hERG inhibition activity (conclusion) (hERG potassium channel): weak or no significant hERG inhibition activity | CYP2D6 inhibition (CYP2D6; 25 μM, 30 minute plus NADPH incubation): approximately 40% | time-dependent CYP2D6 inhibition (conclusion) (CYP2D6; IC50 shift, 30 min pre-incubation with/without NADPH): no evidence of time-dependent CYP2D6 inhibition | IC50 at 5 min (CYP2D6; human, microsomes, probe dextromethorphan (5 µM), 0 minute incubation): > 25 µM | inhibition at 5 min, 25 µM (CYP2D6; human, microsomes, probe dextromethorphan (5 µM), 25 μM, 0 minute incubation): ~40% | effectiveness compared with amantadine [8]: significantly more effective than amantadine | permeability in the MDCK assay (MDR1-MDCK cells): highly permeable | efflux ratio at 60 min, 10 µM (P-glycoprotein (MDR1)): 1.48 | permeability in the Caco-2 assay (Caco-2 cells): highly permeable in both directions | efflux ratio at 120 min, 10 µM [9]: 2.7 | toxicity [10]: virtually no toxicity | binding to plasma proteins [11]: weak, or no noticeable binding | CYP2B6 mRNA expression (CYP2B6 [12]): slight, yet statistically significant decrease | CYP2C9 inhibition (CYP2C9): No significant inhibition | CYP3A4 inhibition (CYP3A4 [13]): No significant inhibition | CYP2B6 inhibition (CYP2B6 [14]): No significant inhibition | CYP1A2 inhibition (CYP1A2 [15]): No significant inhibition | binding [16]: no binding at all could be detected | inhibition of L-DOPA induced dyskinesias [17]: significant inhibition | CYP2C19 IC50 (CYP2C19): too weak to generate an IC50 value | CYP1A2 mRNA expression (CYP1A2 [18]): didn't cause a statistically significant change

CCC(=O)NC1CCN(CCC(=O)OC)CC1 [Methyl 3-(4-propionamidopiperidin-1-yl)propanoate]
IC50 (α2B (h) [1]): 260 µM | Ki (α2B (h) [1]): 180 µM | nH (α2B (h) [1]): 1 | nH (κ (KOP)): 0.8 | EC50 (μ (MOP) (h) [19]): 290 µM | nH (μ (MOP) (h) [20]): 0.5

CCC(=O)NC1CCN(CCc2cccs2)CC1 [N-(1-(2-(thiophen-2-yl)ethyl)piperidin-4-yl)propionamide]
IC50 (α2B (h) [1]): 11 µM | Ki (α2B (h) [1]): 7.6 µM | nH (α2B (h) [1]): 1.2 | nH (δ2 (DOP) (h)): 0.9 | nH (κ (KOP)): 0.6 | nH (μ (MOP) (h) [2]): 0.6 | IC50 (α2B (h) [3]): 440 µM | Kb (α2B (h) [3]): 57 µM

O=C(NC1CCN(CCc2ccccc2)CC1)c1ccccc1 [N-(1-phenethylpiperidin-4-yl)benzamide]
IC50 (α2B (h) [1]): 4 µM | Ki (α2B (h) [1]): 0.27 µM | nH (α2B (h) [1]): 1.3 | nH (δ2 (DOP) (h)): 0.7 | nH (κ (KOP)): 0.6 | nH (μ (MOP) (h) [20]): 0.9 | IC50 (α2B (h) [3]): 350 µM | Kb (α2B (h) [3]): 46 µM

O=C(NC1CCN(CCc2ccccc2)CC1)c1ccco1 [N-(1-phenethylpiperidin-4-yl)furan-2-carboxamide]
IC50 (α2B (h) [1]): 4.6 µM | Ki (α2B (h) [1]): 3 µM | nH (α2B (h) [1]): 0.7 | nH (δ2 (DOP) (h)): 1 | nH (κ (KOP)): 1.1 | nH (μ (MOP) (h) [20]): 0.8 | IC50 (α2B (h) [3]): 380 µM | Kb (α2B (h) [3]): 50 µM

O=C(NC1CCN(CCc2ccccc2)CC1)c1ccoc1 [N-(1-phenethylpiperidin-4-yl)furan-3-carboxamide]
IC50 (α2B (h) [1]): 3 µM | Ki (α2B (h) [1]): 3 µM | nH (α2B (h) [1]): 0.7 | nH (δ2 (DOP) (h)): 1 | nH (κ (KOP)): 1.1 | nH (μ (MOP) (h) [20]): 0.8 | IC50 (α2B (h) [3]): 230 µM | Kb (α2B (h) [3]): 50 µM
